The text below walks through data of patent US20240002425A1, “NOVEL AMINOALKYL GLUCOSAMINIDE 4-PHOSPHATE DERIVATIVE” (DAIICHI SANKYO COMPANY, LIMITED, priority 2020, published 2024).

For the assay, the target named is human TLR4 (Homo sapiens, UniProt O00206+Q9Y6Y9). As to the kind of experiment: Human TLR4 activating effect (HEK-Blue Human TLR4 Cells, SEAP reporter). In kind it is cell-based. Particulars: 24 hours, SEAP Protein concentration, read-out: EC50 (ng/ml) (converted). On the procedure: The human TLR4 activating effect was studied using the compounds described in Examples 1 to 17 and monophosphoryl lipid A as Comparative Example A.
human TLR4, sequence (O00206 24-839): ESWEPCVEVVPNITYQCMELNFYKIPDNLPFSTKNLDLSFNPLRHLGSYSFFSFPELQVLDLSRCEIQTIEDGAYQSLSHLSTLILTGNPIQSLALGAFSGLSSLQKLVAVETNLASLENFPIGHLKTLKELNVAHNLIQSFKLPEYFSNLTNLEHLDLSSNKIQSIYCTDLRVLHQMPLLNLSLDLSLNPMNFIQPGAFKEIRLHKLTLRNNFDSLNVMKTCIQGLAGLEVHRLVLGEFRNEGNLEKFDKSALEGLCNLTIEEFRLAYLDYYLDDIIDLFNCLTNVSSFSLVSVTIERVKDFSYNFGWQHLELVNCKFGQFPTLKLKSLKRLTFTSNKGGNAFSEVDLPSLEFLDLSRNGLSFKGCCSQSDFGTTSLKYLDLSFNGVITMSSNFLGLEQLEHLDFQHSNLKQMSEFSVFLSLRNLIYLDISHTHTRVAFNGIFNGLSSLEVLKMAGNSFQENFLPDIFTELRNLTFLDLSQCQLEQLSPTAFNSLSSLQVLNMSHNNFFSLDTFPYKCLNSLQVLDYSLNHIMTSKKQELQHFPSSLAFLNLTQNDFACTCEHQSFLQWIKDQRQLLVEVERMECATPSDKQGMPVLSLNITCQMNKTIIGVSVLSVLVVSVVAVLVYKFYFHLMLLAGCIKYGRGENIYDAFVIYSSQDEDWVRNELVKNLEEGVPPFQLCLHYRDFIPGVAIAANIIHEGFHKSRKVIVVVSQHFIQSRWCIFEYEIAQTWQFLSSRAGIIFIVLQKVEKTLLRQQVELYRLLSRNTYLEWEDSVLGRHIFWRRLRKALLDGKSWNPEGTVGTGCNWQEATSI
human TLR4, sequence (Q9Y6Y9 17-160 limits assumed): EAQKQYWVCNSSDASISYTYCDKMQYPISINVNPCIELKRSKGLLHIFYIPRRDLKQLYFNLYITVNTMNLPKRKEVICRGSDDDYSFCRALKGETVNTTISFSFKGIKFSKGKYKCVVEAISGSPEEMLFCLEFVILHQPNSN
Triethanolamine was dissolved at 0.5% (v/v) in injectable distilled water to prepare an aqueous triethanolamine solution. 1 mg of each test drug was dissolved in 0.98 mL of the aqueous triethanolamine solution, and pH of the solution was then adjusted to 7.2 to 7.4 by the addition of 20 μL of 1 M HCl to prepare a 1 mg/mL solution. A dilution series of the test drug was prepared using a medium [DMEM (Nacalai Tesque, Inc.), 10% FBS (Sigma-Aldrich Co. LLC), 50 U/mL penicillin-50 μg/mL streptomycin (Thermo Fisher Scientific Inc.), 1×HEK-Blue Selection (InvivoGen), and 100 μg/mL Normocin (InvivoGen)]. 2×10^5 cells/mL HEK-Blue™ Human TLR4 Cells (InvivoGen) were inoculated to each well of a 96-well microplate for tissue culture (Iwaki), then treated with the test drug, and cultured at 37° C. for 24 hours under 5% CO2. The cells thus cultured were centrifuged at 400×g at 4° C. for 3 minutes. Recombinant SEAP Protein (InvivoGen) was used for a calibration curve. After addition of 180 μL of QUANTI-Blue (InvivoGen) to each well of 96 Well TC-Treated Microplates (Corning, Inc.), 20 μL each of the cell culture supernatant and a standard diluting solution was added to each well, and the plate was left standing at 37° C. for 4 hours. After reaction, absorbance (wavelength: 655 nm) was measured using a microplate reader (PerkinElmer, Inc., EnSpire), and a SEAP Protein concentration was calculated from the calibration curve and used as an index for TLR4 agonist activity. A drug concentration that induced reaction corresponding to 50% of the maximum reaction was calculated as EC50 (ng/mL) from a linear expression using two drug concentrations between which the drug concentration that induced reaction corresponding to 50% of the maximum reaction in each experiment was positioned, and measured values thereof.
For `CCCCCCCCCCC[C@H](CC(=O)NC1C(CC[C@H](NC(=O)C[C@@H](CCCCCCCCCCC)OCCCCCCCCCC)C(=O)O)OC(CO)C(OP(=O)(O)O)C1OC(=O)C[C@@H](CCCCCCCCCCC)OCCCCCCCCCC)OCCCCCCCCCC` (stereo partly drawn) [Example 17(17h), Ammonium 5,9-anhydro-7-O-[(3R)-3-(decyloxy)tetradecanoyl]-2,6-bis{[(3R)-3-(decyloxy)tetradecanoyl]amino}-2,3,4,6-tetradeoxy-8-O-phosphono-D-erythro-L-galacto-decanoate], the EC50 was 969 pM.
For `CCCCCCCCCCC[C@H](CC(=O)NC1C(OC[C@H](NC(=O)C[C@@H](CCCCCCCCCCC)OC(=O)CCCCCCCCC)C(=O)O)OC(COC2OC(C(=O)O)C(O)C(O)C2O)C(OP(=O)(O)O)C1OC(=O)C[C@@H](CCCCCCCCCCC)OC(=O)CCCCCCCCC)OC(=O)CCCCCCCCC` (stereo partly drawn) [Example 6(6b), Ammonium (2S)-2-{[(3R)-3-(decanoyloxy)tetradecanoyl]amino}-3-({3-O-[(3R)-3-(decanoyloxy)tetradecanoyl]-2-{[(3R)-3-(decanoyloxy)tetradecanoyl]amino}-2-deoxy-6-β-D-glucopyranuronosyl-4-O-phosphono-β-D-glucopyranosyl}oxy)propanoate], the EC50 was 66.1 pM.
The value for `CCCCCCCCCCC[C@H](CC(=O)NC1C(CC[C@H](NC(=O)C[C@@H](CCCCCCCCCCC)OC(=O)CCCCCCCCC)C(=O)O)OC(COC2(C(=O)O)CC(O)C(O)C([C@H](O)CO)O2)C(OP(=O)(O)O)C1OC(=O)C[C@@H](CCCCCCCCCCC)OC(=O)CCCCCCCCC)OC(=O)CCCCCCCCC` (stereo partly drawn) [Example 14(14d), Ammonium 5,9-anhydro-7-O-[(3R)-3-(decanoyloxy)tetradecanoyl]-2,6-bis{[(3R)-3-(decanoyloxy)tetradecanoyl]amino}-2,3,4,6-tetradeoxy-10-O-(3-deoxy-α-D-manno-oct-2-ulopyranonosyl)-8-O-phosphono-D-erythro-L-galacto-decanoate] was 188 pM.
For the compound `CCCCCCCCCCC[C@H](CC(=O)NC1C(OC[C@H](NC(=O)C[C@@H](CCCCCCCCCCC)OC(=O)CCCCCCCCC)C(=O)O)OC(COC2(C(=O)O)CC(OC3(C(=O)O)CC(O)C(O)C([C@H](O)CO)O3)C(O)C([C@H](O)CO)O2)C(OP(=O)(O)O)C1OC(=O)C[C@@H](CCCCCCCCCCC)OC(=O)CCCCCCCCC)OC(=O)CCCCCCCCC` (stereo partly drawn) [Example 5(5d), Ammonium (2S)-2-{[(3R)-3-(decanoyloxy)tetradecanoyl]amino}-3-{[3-deoxy-α-D-manno-oct-2-ulopyranonosyl-(2-+4)-3-deoxy-α-D-manno-oct-2-ulopyranonosyl-(2-+6)-3-O-[(3R)-3-(decanoyloxy)tetradecanoyl]-2-{[(3R)-3-(decanoyloxy)tetradecanoyl]amino}-2-deoxy-4-O-phosphono-β-D-glucopyranosyl]oxy}propanoate], the EC50 is 187 pM.
In the case of `CCCCCCCCCCC[C@H](CC(=O)N[C@H]1[C@H](OC[C@H](NC(=O)C[C@@H](CCCCCCCCCCC)OC(=O)CCCCCCCCC)C(=O)O)O[C@H](CO[C@]2(C(=O)O)C[C@@H](O)[C@@H](O)[C@@H]([C@H](O)CO)O2)[C@@H](OP(=O)(O)O)[C@@H]1OC(=O)C[C@@H](CCCCCCCCCCC)OC(=O)CCCCCCCCC)OC(=O)CCCCCCCCC` [Example 4(4d), Ammonium (2S)-2-{[(3R)-3-(decanoyloxy)tetradecanoyl]amino}-3-({3-O-[(3R)-3-(decanoyloxy)tetradecanoyl]-2-{[(3R)-3-(decanoyloxy)tetradecanoyl]amino}-2-deoxy-6-O-(3-deoxy-α-D-manno-oct-2-ulopyranonosyl)-4-O-phosphono-β-D-glucopyranosyl}oxy)propanoate], the EC50 was 328 pM.
Under `CCCCCCCCCCC[C@H](CC(=O)N[C@H]1[C@H](OC[C@H](NC(=O)C[C@@H](CCCCCCCCCCC)OC(=O)CCCCCCCCC)C(=O)O)O[C@H](CO[C@@H]2O[C@H](COP(=O)(O)O)[C@@H](O)[C@H](O)[C@H]2NC(C)=O)[C@@H](OP(=O)(O)O)[C@@H]1OC(=O)C[C@@H](CCCCCCCCCCC)OC(=O)CCCCCCCCC)OC(=O)CCCCCCCCC` [Example 9(9e), Ammonium (2S)-3-({6-O-[2-acetamido-2-deoxy-6-O-(hydroxyphosphinato)-β-D-glucopyranosyl]-3-O-[(3R)-3-(decanoyloxy)tetradecanoyl]-2-{[(3R)-3-(decanoyloxy)tetradecanoyl]amino}-2-deoxy-4-O-phosphono-β-D-glucopyranosyl}oxy)-2-{[(3R)-3-(decanoyloxy)tetradecanoyl]amino}propanoate] stands 288 pM; under `CCCCCCCCCCC[C@H](CC(=O)N[C@@H](CO[C@@H]1O[C@H](CO)[C@@H](OP(=O)(O)O)[C@H](OC(=O)C[C@@H](CCCCCCCCCCC)OC(=O)CCCCCCCCC)[C@H]1NC(=O)C[C@@H](CCCCCCCCCCC)OC(=O)CCCCCCCCC)CC(=O)O)OC(=O)CCCCCCCCC` [Example 1(1k), Bisammonium (3R)-3-{[(3R)-3-(decanoyloxy)tetradecanoyl]amino}-4-({3-O-[(3R)-3-(decanoyloxy)tetradecanoyl]-2-{[(3R)-3-(decanoyloxy)tetradecanoyl]amino}-2-deoxy-4-O-phosphono-β-D-glucopyranosyl}oxy)butanoate], 612 pM.
The value for `CCCCCCCCCCC[C@H](CC(=O)NC1C(OC[C@@H](CC(=O)O)NC(=O)C[C@@H](CCCCCCCCCCC)OC(=O)CCCCCCCCC)OC(COC2(C(=O)O)CC(OC3(C(=O)O)CC(O)C(O)C([C@H](O)CO)O3)C(O)C([C@H](O)CO)O2)C(OP(=O)(O)O)C1OC(=O)C[C@@H](CCCCCCCCCCC)OC(=O)CCCCCCCCC)OC(=O)CCCCCCCCC` (stereo partly drawn) [Example 3(3d), Ammonium (3R)-3-{[(3R)-3-(decanoyloxy)tetradecanoyl]amino}-4-{[3-deoxy-α-D-manno-oct-2-ulopyranonosyl-(2-+4)-3-deoxy-α-D-manno-oct-2-ulopyranonosyl-(2-+6)-3-O-[(3R)-3-(decanoyloxy)tetradecanoyl]-2-{[(3R)-3-(decanoyloxy)tetradecanoyl]amino}-2-deoxy-4-O-phosphono-β-D-glucopyranosyl]oxy}butanoate] was 422 pM; that for `CCCCCCCCCCC[C@H](CC(=O)NC1C(CC[C@H](NC(=O)C[C@@H](CCCCCCCCCCC)OC(=O)CCCCCCCCC)C(=O)O)OC(COC2(C(=O)O)CC(OC3(C(=O)O)CC(O)C(O)C([C@H](O)CO)O3)C(O)C([C@H](O)CO)O2)C(OP(=O)(O)O)C1OC(=O)C[C@@H](CCCCCCCCCCC)OC(=O)CCCCCCCCC)OC(=O)CCCCCCCCC` (stereo partly drawn) [Example 15(15d), Ammonium 3-deoxy-α-D-manno-oct-2-ulopyranonosyl-(2-+4)-3-deoxy-α-D-manno-oct-2-ulopyranonosyl-(2-+10)-5,9-anhydro-7-O-[(3R)-3-(decanoyloxy)tetradecanoyl]-2,6-bis{[(3R)-3-(decanoyloxy)tetradecanoyl]amino}-2,3,4,6-tetradeoxy-8-O-phosphono-D-erythro-L-galacto-decanoate] was 400 pM; that for `CCCCCCCCCCC[C@H](CC(=O)NC1C(CC[C@H](NC(=O)C[C@@H](CCCCCCCCCCC)OC(=O)CCCCCCCCC)C(=O)O)OC(CF)C(OP(=O)(O)O)C1OC(=O)C[C@@H](CCCCCCCCCCC)OC(=O)CCCCCCCCC)OC(=O)CCCCCCCCC` (stereo partly drawn) [Example 16(16b), Ammonium 5,9-anhydro-7-O-[(3R)-3-(decanoyloxy)tetradecanoyl]-2,6-bis{[(3R)-3-(decanoyloxy)tetradecanoyl]amino}-2,3,4,6,10-pentadeoxy-10-fluoro-8-O-phosphono-D-erythro-L-galacto-decanoate] was 1010 pM.
Consider `CCCCCCCCCCC[C@H](CC(=O)N[C@H]1[C@H](OC[C@H](NC(=O)C[C@@H](CCCCCCCCCCC)OC(=O)CCCCCCCCC)C(=O)O)O[C@H](CO[C@@H]2O[C@H](CO)[C@@H](O)[C@H](O)[C@H]2NC(C)=O)[C@@H](OP(=O)(O)O)[C@@H]1OC(=O)C[C@@H](CCCCCCCCCCC)OC(=O)CCCCCCCCC)OC(=O)CCCCCCCCC` [Example 7(7c), Ammonium (2S)-3-{[6-O-(2-acetamido-2-deoxy-β-D-glucopyranosyl)-3-O-[(3R)-3-(decanoyloxy)tetradecanoyl]-2-{[(3R)-3-(decanoyloxy)tetradecanoyl]amino}-2-deoxy-4-O-phosphono-β-D-glucopyranosyl]oxy}-2-{[(3R)-3-(decanoyloxy)tetradecanoyl]amino}propanoate], for which the EC50 was 396 pM.
The value for `CCCCCCCCCCC[C@H](CC(=O)NC1C(CC[C@@H](CC(=O)O)NC(=O)C[C@@H](CCCCCCCCCCC)OC(=O)CCCCCCCCC)OC(COC2(C(=O)O)CC(O)C(O)C([C@H](O)CO)O2)C(OP(=O)(O)O)C1OC(=O)C[C@@H](CCCCCCCCCCC)OC(=O)CCCCCCCCC)OC(=O)CCCCCCCCC` (stereo partly drawn) [Example 11(11d), Ammonium 6,10-anhydro-8-O-[(3R)-3-(decanoyloxy)tetradecanoyl]-3,7-bis{[(3R)-3-(decanoyloxy)tetradecanoyl]amino}-2,3,4,5,7-pentadeoxy-11-O-(3-deoxy-α-D-manno-oct-2-ulopyranonosyl)-9-O-phosphono-D-erythro-L-galacto-undecanoate] was 291 pM.
